Measured values reported in patent publication US12516056B2, “Compounds for inhibition of janus kinase 1” (MANKIND PHARMA LTD., priority 2019, dated 2026).
Where a name gives a salt, the structure may show the parent alone. Read-outs that look alike come from different tables or passages of the source.

Experiments:
[1] = target: T1, Recombinant TYK2 (Homo sapiens, UniProt P29597); test: JAK biochemical assay (LANCE Ultra TR-FRET), TYK2; conditions: recombinant TYK2, TR-FRET; read-out: Biochemical Assay (μM) TYK2
T1 construct: purchased Carna Biosciences
T1 sequence (P29597 whole entry): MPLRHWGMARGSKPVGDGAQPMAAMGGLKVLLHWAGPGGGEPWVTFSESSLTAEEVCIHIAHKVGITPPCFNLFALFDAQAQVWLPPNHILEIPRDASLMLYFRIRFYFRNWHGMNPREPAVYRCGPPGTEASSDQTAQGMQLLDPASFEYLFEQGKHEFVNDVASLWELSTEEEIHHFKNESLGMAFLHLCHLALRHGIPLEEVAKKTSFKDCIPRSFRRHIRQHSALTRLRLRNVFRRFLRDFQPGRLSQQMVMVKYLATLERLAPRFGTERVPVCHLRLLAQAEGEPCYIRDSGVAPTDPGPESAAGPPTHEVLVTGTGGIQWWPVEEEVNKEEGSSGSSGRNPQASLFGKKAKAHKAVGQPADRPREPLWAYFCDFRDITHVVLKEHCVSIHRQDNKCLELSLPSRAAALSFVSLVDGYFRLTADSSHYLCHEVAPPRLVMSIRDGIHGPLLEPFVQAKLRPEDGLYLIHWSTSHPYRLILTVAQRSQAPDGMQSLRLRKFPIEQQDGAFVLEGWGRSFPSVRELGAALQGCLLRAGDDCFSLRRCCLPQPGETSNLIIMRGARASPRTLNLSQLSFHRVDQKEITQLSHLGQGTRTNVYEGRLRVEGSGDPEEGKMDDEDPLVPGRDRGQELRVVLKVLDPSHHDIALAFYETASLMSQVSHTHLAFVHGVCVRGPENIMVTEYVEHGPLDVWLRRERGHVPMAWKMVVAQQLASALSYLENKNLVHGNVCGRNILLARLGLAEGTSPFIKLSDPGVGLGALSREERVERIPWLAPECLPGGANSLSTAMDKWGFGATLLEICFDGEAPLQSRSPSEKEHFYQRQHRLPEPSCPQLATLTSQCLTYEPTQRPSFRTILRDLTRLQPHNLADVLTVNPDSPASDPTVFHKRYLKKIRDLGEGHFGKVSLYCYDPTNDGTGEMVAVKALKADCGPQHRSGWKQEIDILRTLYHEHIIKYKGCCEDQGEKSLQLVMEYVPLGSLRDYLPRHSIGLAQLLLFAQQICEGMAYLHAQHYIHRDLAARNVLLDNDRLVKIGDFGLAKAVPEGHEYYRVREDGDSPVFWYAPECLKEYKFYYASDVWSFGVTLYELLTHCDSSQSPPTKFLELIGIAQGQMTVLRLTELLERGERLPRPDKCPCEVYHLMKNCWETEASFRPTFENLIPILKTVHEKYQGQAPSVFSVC
Outline: (§1)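 % inhibition relative to vehicle was derived from TR-FRET signal proportional to ULight-substrate phosphorylation. Reactions used recombinant kinase in HEPES pH 7.5 buffer containing EGTA, MgCl2, DTT and Tween-20.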

[2] = target: T2, Recombinant JAK2 (Homo sapiens, UniProt O60674); test: JAK biochemical assay (LANCE Ultra TR-FRET), JAK2; conditions: recombinant JAK2, TR-FRET; read-out: Biochemical Assay (μM) JAK2
T2 construct: purchased Carna Biosciences
T2 sequence (O60674 whole entry): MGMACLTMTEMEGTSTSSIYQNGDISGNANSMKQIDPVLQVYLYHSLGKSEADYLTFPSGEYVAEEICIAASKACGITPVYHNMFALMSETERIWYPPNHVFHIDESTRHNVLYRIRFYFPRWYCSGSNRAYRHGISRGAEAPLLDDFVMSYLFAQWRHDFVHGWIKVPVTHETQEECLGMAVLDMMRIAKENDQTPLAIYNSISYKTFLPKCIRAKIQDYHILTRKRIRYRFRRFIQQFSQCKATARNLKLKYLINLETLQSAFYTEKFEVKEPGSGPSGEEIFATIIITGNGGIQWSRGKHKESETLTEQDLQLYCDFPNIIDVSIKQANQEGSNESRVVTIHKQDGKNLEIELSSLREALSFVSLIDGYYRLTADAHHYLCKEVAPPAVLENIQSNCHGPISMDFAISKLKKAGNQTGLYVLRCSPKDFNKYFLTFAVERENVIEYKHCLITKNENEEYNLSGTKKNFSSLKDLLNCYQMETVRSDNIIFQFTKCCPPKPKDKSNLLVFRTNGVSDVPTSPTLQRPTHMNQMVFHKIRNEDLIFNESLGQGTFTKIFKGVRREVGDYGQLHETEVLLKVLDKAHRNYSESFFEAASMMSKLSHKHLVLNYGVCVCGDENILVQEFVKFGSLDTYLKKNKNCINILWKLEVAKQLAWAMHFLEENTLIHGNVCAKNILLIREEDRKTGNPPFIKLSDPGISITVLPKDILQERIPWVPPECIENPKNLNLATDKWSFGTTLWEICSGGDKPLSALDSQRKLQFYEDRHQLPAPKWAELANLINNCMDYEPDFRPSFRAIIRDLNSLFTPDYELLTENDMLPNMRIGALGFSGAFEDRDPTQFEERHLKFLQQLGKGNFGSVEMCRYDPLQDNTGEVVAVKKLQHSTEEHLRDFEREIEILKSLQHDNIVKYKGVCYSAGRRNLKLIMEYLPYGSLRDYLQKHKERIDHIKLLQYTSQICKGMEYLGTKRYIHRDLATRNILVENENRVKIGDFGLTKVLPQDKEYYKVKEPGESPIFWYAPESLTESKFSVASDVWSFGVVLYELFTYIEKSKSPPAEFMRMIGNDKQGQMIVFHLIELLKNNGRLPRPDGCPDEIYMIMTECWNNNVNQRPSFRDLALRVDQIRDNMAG
Outline: as §1

[3] = target: T3, Recombinant JAK1 (Homo sapiens, UniProt P23458); test: JAK biochemical assay (LANCE Ultra TR-FRET), JAK1; conditions: recombinant JAK1, TR-FRET; read-out: Biochemical Assay (μM) JAK1
T3 construct: purchased Carna Biosciences
T3 sequence (P23458 whole entry): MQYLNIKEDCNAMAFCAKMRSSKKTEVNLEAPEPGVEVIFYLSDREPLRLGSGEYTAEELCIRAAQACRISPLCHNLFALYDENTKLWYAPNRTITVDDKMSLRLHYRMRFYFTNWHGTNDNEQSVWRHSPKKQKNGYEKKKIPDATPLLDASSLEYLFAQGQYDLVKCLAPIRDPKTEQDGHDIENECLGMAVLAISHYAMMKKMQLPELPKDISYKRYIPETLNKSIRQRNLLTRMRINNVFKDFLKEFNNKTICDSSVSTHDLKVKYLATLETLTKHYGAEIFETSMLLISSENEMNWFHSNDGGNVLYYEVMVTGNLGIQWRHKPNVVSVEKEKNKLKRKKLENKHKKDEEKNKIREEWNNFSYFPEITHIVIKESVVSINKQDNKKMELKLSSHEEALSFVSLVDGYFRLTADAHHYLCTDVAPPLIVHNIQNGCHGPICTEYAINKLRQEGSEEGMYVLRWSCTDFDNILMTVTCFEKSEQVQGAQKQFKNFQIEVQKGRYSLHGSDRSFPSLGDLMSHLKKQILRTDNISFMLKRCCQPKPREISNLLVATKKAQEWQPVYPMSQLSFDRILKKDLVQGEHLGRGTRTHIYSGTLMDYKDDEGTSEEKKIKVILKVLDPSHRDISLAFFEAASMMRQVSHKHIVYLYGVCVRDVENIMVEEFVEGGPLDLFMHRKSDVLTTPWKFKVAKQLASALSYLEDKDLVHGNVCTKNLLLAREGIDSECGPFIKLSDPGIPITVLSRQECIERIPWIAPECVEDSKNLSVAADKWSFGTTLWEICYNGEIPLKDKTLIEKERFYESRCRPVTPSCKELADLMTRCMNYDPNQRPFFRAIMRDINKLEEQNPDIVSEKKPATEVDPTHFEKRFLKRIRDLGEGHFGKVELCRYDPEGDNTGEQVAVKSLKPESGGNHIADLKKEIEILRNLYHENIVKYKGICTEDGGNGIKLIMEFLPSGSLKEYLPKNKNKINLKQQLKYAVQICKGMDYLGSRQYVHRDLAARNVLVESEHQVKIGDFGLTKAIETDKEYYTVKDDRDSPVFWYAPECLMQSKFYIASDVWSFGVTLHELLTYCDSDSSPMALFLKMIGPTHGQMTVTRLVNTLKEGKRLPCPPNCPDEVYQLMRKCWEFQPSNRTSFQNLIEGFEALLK
Outline: as §1

[4] = test system: STAT3 phosphorylation by IL-6 in TF-1 cells; test: JAK cellular assay: STAT3 phosphorylation by IL-6 in TF-1 cells (HTRF); assay type: cell-based; conditions: IL-6 30 ng/ml, pSTAT3 HTRF, read-out: Cell Based Assay (μM) TF-1/IL-6/pSTAT3
Method: TF-1 cells were starved overnight in OptiMEM medium with 0.5% charcoal stripped fetal bovine serum, 0.1 mM nonessential amino acids (NEAA), 1 mM sodium pyruvate and without phenol red in CO2 incubator maintained at 37° c. Next day, cells were resuspended in RPMI without phenol red and dispensed into a 96 well plate at a final cell density of 1,20,000 cells per well. Compounds were diluted in DMSO and added to cells and incubated for 30 minutes in CO2 incubator maintained at 37° c. Final DMSO concentration in cell based assay was 0.2%. Human recombinant cytokines, IL-6 (30 ng/ml) and GMCSF (5 ng/ml) were added to the plate containing cells along with compound and incubated for 20 minutes with gentle tapping at every 5 minutes once. Compound mediated effects on STAT3 and STAT5 phosphorylation was measured in the lysates prepared by using CISBIO pSTAT3 and pSTAT5 detection kits by HTRF method. Background signal obtained from cells which were not activated with cytokines, was subtracted from vehicle controls and compound treated wells.

[5] = target: T4, Recombinant JAK3 (Homo sapiens, UniProt P52333); test: JAK biochemical assay (LANCE Ultra TR-FRET), JAK3; conditions: recombinant JAK3, TR-FRET; read-out: Biochemical Assay (μM) JAK3
T4 construct: purchased Carna Biosciences
T4 sequence (P52333 1-1124): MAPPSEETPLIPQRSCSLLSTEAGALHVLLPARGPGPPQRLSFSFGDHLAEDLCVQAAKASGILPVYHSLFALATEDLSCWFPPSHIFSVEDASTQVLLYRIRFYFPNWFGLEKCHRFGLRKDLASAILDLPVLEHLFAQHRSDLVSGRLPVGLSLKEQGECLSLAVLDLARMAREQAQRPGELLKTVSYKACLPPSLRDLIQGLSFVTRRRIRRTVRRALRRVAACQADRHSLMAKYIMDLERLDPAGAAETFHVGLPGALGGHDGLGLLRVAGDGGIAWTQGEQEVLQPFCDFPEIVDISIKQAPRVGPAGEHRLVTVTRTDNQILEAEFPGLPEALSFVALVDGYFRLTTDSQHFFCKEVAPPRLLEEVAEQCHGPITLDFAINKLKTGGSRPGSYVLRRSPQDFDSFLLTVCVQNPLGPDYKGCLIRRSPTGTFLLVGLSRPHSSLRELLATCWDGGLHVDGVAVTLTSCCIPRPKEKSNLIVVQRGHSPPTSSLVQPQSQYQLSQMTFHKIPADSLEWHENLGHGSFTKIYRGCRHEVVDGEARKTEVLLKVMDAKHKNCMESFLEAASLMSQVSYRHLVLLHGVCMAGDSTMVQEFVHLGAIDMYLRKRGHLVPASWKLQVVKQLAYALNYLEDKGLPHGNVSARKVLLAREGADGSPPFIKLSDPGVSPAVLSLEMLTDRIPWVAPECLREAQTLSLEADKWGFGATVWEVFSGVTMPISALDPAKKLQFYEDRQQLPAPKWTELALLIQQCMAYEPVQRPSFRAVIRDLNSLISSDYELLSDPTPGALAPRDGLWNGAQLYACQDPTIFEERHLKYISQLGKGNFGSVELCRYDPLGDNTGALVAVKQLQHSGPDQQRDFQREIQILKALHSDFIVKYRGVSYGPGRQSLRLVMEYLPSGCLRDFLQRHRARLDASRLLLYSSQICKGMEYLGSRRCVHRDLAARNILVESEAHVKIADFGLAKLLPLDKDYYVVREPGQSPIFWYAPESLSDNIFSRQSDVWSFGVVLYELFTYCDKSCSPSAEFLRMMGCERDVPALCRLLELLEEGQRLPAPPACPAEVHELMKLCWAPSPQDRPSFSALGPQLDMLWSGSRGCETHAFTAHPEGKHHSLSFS
Outline: as §1

Compound | IC50 [1] [µM] | IC50 [2] [µM] | IC50 [3] [µM] | IC50 ([4]; Homo sapiens, TF-1, TF-1 cells) [µM] | IC50 [5] [µM] | IC50 ([4]; TF-1 cells, hydrochloride) [µM]
CC1(C)CN(C(=O)Nc2ccc(-c3ccnc4[nH]c(=O)[nH]c34)cc2)C1 [Example 1007, N-(4-(2,3-dihydro-2-oxo-1H-imidazo[4,5-b]pyridin-7-yl)phenyl)-3,3-dimethylazetidine-1-carboxamide] | > 1 | > 0.5 | > 0.5 | > 10 | > 1 | 
N#CC1(NC(=O)n2cc(-c3ccnc4[nH]c(=O)[nH]c34)cn2)CC1 [Example 1032, N-(1-cyanocyclopropyl)-4-(2,3-dihydro-2-oxo-1H-imidazo[4,5-b]pyridin-7-yl)-1H-pyrazole-1-carboxamide] | < 0.5 | < 0.5 | < 0.5 | > 10 | < 0.5 | 
CC1(C)CN(C(=O)n2cc(-c3ccnc4[nH]c(=O)[nH]c34)cn2)C1 [Example 1037, 7-(1-(3,3-dimethylazetidine-1-carbonyl)-1H-pyrazol-4-yl)-1,3-dihydro-2H-imidazo[4,5-b]pyridin-2-one] | > 0.5 | > 1 | > 0.5 | > 10 | > 1 | 
N#CC(NC(=O)n1cc(-c2ccnc3[nH]c(=O)[nH]c23)cn1)C1CCCC1 (stereo not shown) [Example 1038, N-(cyano(cyclopentyl)methyl)-4-(2,3-dihydro-2-oxo-1H-imidazo[4,5-b]pyridin-7-yl)-1H-pyrazole-1-carboxamide] | > 0.5 | > 0.5 | > 0.5 | 10 | > 0.5 | 
CC(C)C(C#N)NC(=O)n1cc(-c2ccnc3[nH]c(=O)[nH]c23)cn1 (stereo not shown) [Example 1044, N-(1-cyano-2-methylpropyl)-4-(2,3-dihydro-2-oxo-1H-imidazo[4,5-b]pyridin-7-yl)-1H-pyrazole-1-carboxamide] | < 0.5 | < 0.5 | < 0.5 | 10 | < 0.5 | 
COCCC(C#N)NC(=O)n1cc(-c2ccnc3[nH]cnc23)cn1 (stereo not shown) [Example 1071, N-(1-cyano-3-methoxypropyl)-4-(3H-imidazo[4,5-b]pyridin-7-yl)-1H-pyrazole-1-carboxamide] | > 0.5 | > 0.5 | > 0.5 | > 10 | > 0.5 | 
N#CCc1ccc(-n2cc(-c3ccnc4[nH]cnc34)cn2)nc1 [Example 1082, 2-(6-(4-(3H-imidazo[4,5-b]pyridin-7-yl)-1H-pyrazol-1-yl)pyridin-3-yl)acetonitrile hydrochloride] |  | < 0.5 | < 0.5 |  | < 0.5 | > 1
CC(C)N(CCC(c1ccc(-n2cc(-c3ccnc4[nH]cnc34)cn2)nc1)C(F)(F)F)C(C)C (stereo not shown) [Example 1211, 3-(6-(4-(3H-imidazo[4,5-b]pyridin-7-yl)-1H-pyrazol-1-yl)pyridin-3-yl)-4,4,4-trifluoro-N,N-diisopropylbutan-1-amine] | > 1 | > 0.1 | < 0.1 |  | > 0.1 | 

Other lines, results leading:

IC50 [1] [µM] | IC50 [2] [µM] | IC50 [3] [µM] | IC50 ([4]; Homo sapiens, TF-1, TF-1 cells) [µM] | IC50 [5] [µM] | IC50 ([4]; TF-1 cells, hydrochloride) [µM] | Compound
0.182 | 0.036 | 0.021 | > 10 | 0.175 |  | O=C(NCC(F)(F)F)Nc1ccc(-c2ccnc3[nH]c(=O)[nH]c23)cc1 [Example 1003, 1-(2,2,2-trifluoroethyl)-3-(4-(2,3-dihydro-2-oxo-1H-imidazo[4,5-b]pyridin-7-yl)phenyl)urea]
> 1 |  |  | > 10 |  |  | O=C(NCC(F)(F)F)Nc1ccc(-c2ccnc3[nH]c(=O)[nH]c23)cn1 [Example 1005, 1-(2,2,2-trifluoroethyl)-3-(5-(2,3-dihydro-2-oxo-1H-imidazo[4,5-b]pyridin-7-yl)pyridin-2-yl)urea]
< 0.5 | < 0.5 | < 0.5 | > 10 | < 0.5 |  | O=C(NCC(F)(F)F)N1CCN(c2ccnc3[nH]c(-c4ccccc4)nc23)CC1 [Example 1022, N-(2,2,2-trifluoroethyl)-4-(2-phenyl-3H-imidazo[4,5-b]pyridin-7-yl)piperazine-1-carboxamide]
0.093 | 0.066 | 0.039 | 10 | 0.43 |  | CC(NC(=O)n1cc(-c2ccnc3[nH]c(=O)[nH]c23)cn1)C(F)(F)F (stereo not shown) [Example 1030, N-(1,1,1-trifluoropropan-2-yl)-4-(2,3-dihydro-2-oxo-1H-imidazo[4,5-b]pyridin-7-yl)-1H-pyrazole-1-carboxamide]
< 0.5 | < 0.5 | < 0.5 | 10 |  |  | N#CCC(NC(=O)n1cc(-c2ccnc3[nH]c(=O)[nH]c23)cn1)C1CCCC1 (stereo not shown) [Example 1039, N-(2-cyano-1-cyclopentylethyl)-4-(2,3-dihydro-2-oxo-1H-imidazo[4,5-b]pyridin-7-yl)-1H-pyrazole-1-carboxamide]
> 1 | > 1 | > 1 | > 10 | > 10 |  | O=C(NC(C1CCCC1)C(F)(F)F)n1cc(-c2ccnc3[nH]c(=O)[nH]c23)cn1 (stereo not shown) [Example 1041, N-(1-cyclopentyl-2,2,2-trifluoroethyl)-4-(2,3-dihydro-2-oxo-1H-imidazo[4,5-b]pyridin-7-yl)-1H-pyrazole-1-carboxamide]
< 0.5 | < 0.5 | < 0.5 | > 10 | < 0.5 |  | O=C(NCC(F)(F)F)n1cc(-c2ccnc3[nH]cnc23)cn1 [Example 1064, N-(2,2,2-trifluoroethyl)-4-(3H-imidazo[4,5-b]pyridin-7-yl)-1H-pyrazole-1-carboxamide]
> 0.5 | > 0.5 |  | > 10 | > 0.5 |  | N#CC1CCCCC1NC(=O)n1cc(-c2ccnc3[nH]cnc23)cn1 (stereo not shown) [Example 1066, N-(2-cyanocyclohexyl)-4-(3H-imidazo[4,5-b]pyridin-7-yl)-1H-pyrazole-1-carboxamide]
> 0.5 | 0.01 |  | > 1 | 0.005 |  | CC(C)NCC[C@H](c1ccc(-n2cc(-c3ccnc4[nH]cnc34)cn2)nc1)C(F)(F)F [Example 1208, (R)-3-(6-(4-(3H-imidazo[4,5-b]pyridin-7-yl)-1H-pyrazol-1-yl)pyridin-3-yl)-4,4,4-trifluoro-N-isopropylbutan-1-amine]
 |  |  | > 0.5 |  |  | CC(C)NCC(c1ccc(-n2cc(-c3ccnc4[nH]cnc34)cn2)nc1)C(F)(F)F (stereo not shown) [Example 1218, 2-(6-(4-(3H-imidazo[4,5-b]pyridin-7-yl)-1H-pyrazol-1-yl)pyridin-3-yl)-3,3,3-trifluoro-N-isopropylpropan-1-amine]
> 1 | > 0.5 | > 0.5 |  | > 0.5 |  | O=C(CC(c1ccc(-n2cc(-c3ccnc4[nH]cnc34)cn2)nc1)C(F)(F)F)N1CCOCC1 (stereo not shown) [Example 1249, 3-(6-(4-(3H-imidazo[4,5-b]pyridin-7-yl)-1H-pyrazol-1-yl)pyridin-3-yl)-4,4,4-trifluoro-1-morpholinobutan-1-one]
